Laboratory results as given in patent publication US10030004B2, “Compounds and methods of use” (Medivation Technologies LLC, priority 2014, dated 2018).
Like-named read-outs stand apart in the source and are kept apart here.

Key:
[1] = target: ALK6 (BMPR1B) (Homo sapiens (Human), UniProt O00238); assay: In vitro kinase assay, ALK6; type: biochemical
[2] = target: ALK5 (TGFBR1) (Homo sapiens (Human), UniProt P36897); assay: In vitro kinase assay, ALK5; type: biochemical; settings: 10 μM ATP; read-out: Inhibition of ALK5 IC50
[3] = target: ALK4 (ACVR1B) (Homo sapiens (Human), UniProt P36896); assay: In vitro kinase assay, ALK4; type: biochemical; settings: 10 μM ATP; read-out: Inhibition of ALK4 IC50
[4] = target: ALK1 (ACVRL1) (Homo sapiens (Human), UniProt P37023); assay: In vitro kinase assay, ALK1; type: biochemical; settings: 10 μM ATP; read-out: Inhibition of ALK1 IC50
[5] = target: ALK3 (BMPR1A) (Homo sapiens (Human), UniProt P36894); assay: In vitro kinase assay, ALK3; type: biochemical; settings: 10 μM ATP; read-out: Inhibition of ALK3 IC50
[6] = target: ALK2 (ACVR1) (Homo sapiens (Human), UniProt Q04771); assay: In vitro kinase assay, ALK2; type: biochemical; settings: read-out: Inhibition of ALK2 IC50
[7] = tested on: p-SMAD2; assay: p-SMAD2 inhibition, Western Blot Analysis in TGFβ-stimulated MDA-MB-231 cells; type: cell-based; settings: Homo sapiens, TGFβ 2 ng/mL, triplicate; for inhibition at 0.1 µM: 0.1 μM compound, read-out: Average p-SMAD2 inhibition @ 0.1 μM (% Inh)
[8] = Pharmacokinetics and bioavailability in male mice after a single dose; type: in vivo; settings: for half-life: read-out: Terminal t1/2 (converted)
[9] = 10 μM ATP, read-out: Inhibition of ALK6 IC50
[10] = mouse, plasma, intravenous, 2 mg/kg

Sequence of ALK3 (BMPR1A) (P36894 24-532): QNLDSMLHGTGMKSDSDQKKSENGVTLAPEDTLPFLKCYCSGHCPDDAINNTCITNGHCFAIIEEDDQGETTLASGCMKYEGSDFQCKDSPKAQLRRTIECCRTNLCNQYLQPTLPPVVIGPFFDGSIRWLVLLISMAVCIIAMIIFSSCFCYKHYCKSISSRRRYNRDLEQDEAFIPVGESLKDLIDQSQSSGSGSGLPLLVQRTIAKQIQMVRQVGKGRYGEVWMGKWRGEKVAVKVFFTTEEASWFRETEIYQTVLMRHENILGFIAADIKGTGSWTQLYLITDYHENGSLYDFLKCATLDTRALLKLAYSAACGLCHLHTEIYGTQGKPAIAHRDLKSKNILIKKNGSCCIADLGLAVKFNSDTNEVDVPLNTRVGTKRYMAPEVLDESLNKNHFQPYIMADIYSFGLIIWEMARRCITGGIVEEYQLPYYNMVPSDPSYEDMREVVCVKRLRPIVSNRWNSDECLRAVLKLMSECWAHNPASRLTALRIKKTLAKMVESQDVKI
Sequence of ALK2 (ACVR1) (Q04771 21-509): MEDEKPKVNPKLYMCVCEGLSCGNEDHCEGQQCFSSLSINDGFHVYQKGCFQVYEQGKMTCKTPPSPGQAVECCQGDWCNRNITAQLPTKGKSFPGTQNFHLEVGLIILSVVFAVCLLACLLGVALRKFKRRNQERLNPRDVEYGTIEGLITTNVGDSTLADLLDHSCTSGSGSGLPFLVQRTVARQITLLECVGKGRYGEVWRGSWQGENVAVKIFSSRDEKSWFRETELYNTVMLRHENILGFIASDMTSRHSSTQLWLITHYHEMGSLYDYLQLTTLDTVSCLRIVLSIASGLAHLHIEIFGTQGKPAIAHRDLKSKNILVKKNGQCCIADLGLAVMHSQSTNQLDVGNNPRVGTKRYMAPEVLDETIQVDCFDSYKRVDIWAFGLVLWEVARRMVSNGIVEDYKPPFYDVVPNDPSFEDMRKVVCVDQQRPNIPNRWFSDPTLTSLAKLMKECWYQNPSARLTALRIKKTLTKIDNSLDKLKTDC
Sequence of ALK1 (ACVRL1) (P37023 22-503): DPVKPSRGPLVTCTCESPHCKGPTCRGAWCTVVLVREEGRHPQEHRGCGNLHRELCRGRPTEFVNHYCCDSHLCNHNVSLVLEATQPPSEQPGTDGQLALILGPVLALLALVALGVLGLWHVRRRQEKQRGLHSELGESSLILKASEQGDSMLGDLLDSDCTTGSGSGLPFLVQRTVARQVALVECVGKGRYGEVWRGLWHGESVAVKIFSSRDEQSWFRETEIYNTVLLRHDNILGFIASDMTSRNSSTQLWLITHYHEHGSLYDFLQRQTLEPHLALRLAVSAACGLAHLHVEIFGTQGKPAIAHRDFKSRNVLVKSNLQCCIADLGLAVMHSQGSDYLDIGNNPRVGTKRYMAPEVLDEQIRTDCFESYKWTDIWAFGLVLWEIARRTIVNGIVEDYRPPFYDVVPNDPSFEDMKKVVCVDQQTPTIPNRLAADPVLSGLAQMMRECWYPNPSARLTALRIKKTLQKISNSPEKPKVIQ
Sequence of ALK6 (BMPR1B) (O00238 14-502): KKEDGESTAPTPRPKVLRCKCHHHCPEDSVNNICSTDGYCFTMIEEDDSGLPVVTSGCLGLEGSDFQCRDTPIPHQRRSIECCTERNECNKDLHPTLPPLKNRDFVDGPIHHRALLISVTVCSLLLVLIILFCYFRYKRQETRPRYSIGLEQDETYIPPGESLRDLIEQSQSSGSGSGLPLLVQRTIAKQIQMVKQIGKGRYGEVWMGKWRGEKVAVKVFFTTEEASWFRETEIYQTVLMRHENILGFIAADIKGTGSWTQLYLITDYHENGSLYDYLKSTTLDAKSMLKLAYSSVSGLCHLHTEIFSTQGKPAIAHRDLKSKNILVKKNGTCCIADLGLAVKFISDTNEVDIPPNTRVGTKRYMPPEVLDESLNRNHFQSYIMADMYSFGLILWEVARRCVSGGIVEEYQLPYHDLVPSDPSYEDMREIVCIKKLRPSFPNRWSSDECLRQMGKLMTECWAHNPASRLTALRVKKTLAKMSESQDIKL
Sequence of ALK5 (TGFBR1) (P36897 34-503): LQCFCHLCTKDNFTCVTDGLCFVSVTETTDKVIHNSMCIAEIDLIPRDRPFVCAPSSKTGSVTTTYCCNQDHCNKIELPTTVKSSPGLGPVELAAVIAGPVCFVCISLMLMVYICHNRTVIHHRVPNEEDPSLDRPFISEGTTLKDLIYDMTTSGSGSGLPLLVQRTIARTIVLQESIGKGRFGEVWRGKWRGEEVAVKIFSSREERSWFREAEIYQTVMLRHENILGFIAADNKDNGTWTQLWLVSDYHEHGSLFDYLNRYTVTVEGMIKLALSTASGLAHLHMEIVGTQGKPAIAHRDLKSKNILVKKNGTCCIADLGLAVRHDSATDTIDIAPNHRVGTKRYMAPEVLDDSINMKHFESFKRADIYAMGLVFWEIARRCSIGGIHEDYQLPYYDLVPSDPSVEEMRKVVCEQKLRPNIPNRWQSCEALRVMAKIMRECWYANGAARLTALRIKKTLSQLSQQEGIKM
Sequence of ALK4 (ACVR1B) (P36896 24-505): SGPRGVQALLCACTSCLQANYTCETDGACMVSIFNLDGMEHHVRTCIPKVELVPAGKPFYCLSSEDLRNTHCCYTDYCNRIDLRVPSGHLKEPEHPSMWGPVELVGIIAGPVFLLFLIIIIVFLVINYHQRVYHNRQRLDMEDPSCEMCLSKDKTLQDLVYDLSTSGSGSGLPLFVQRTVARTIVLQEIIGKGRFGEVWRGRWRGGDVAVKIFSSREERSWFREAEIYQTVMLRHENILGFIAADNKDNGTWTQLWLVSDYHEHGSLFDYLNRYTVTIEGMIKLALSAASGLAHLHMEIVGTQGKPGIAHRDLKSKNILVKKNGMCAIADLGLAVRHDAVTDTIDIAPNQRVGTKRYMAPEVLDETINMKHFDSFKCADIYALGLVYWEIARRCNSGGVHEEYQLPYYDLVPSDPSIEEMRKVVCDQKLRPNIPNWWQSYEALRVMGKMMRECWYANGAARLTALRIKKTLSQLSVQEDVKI

IC50 [1, 9] [µM]	Compound	IC50 [4] [µM]	IC50 [5] [µM]	IC50 ([6]; 10 μM ATP) [µM]	other results
	CC(O)CNC(=O)c1c[nH]nc1Nc1cc(-c2cc(Cl)ccc2F)ncc1C(C)C (single isomer, unassigned) [21a, 3-[[2-(5-chloro-2-fluoro-phenyl)-5-isopropyl-4-pyridyl]amino]-N-(2-hydroxypropyl)-1H-pyrazole-4-carboxamide]	> 100	> 1000	> 1000	IC50 [1]: > 1000 µM; IC50 [2]: > 100 µM; IC50 [3]: > 1000 µM
	C=Cc1cnc(-c2cc(Cl)ccc2F)cc1Nc1ccncc1C(=O)NC[C@H](C)O [10a, (S)-4-(2-(5-chloro-2-fluorophenyl)-5-vinylpyridin-4-ylamino)-N-(2-hydroxypropyl)nicotinamide]				inhibition at 0.1 µM [7]: 0%
	C=C(C)c1cnc(-c2cc(Cl)ccc2F)cc1Nc1ccncc1C(=O)NC(C)(C)CO [compound 8, 4-[[2-(5-chloro-2-fluoro-phenyl)-5-isopropenyl-4-pyridyl]amino]-N-(2-hydroxy-1,1-dimethyl-ethyl)pyridine-3-carboxamide]	> 100	> 100		V ([8]; intravenous, 2 mg/kg): 14.9 L/kg; AUC(0-t) [8, 10]: 0.709 µM·h; Cmax [8, 10]: 1240 nM; clearance [8, 10]: 103 mL/min/kg; half-life [8, 10]: 1.68 h; AUC(0-t) ([8]; mouse, plasma, oral, 10 mg/kg): 1.31 µM·h; Cmax ([8]; mouse, plasma, oral, 10 mg/kg): 1060 nM; Tmax ([8]; mouse, plasma, oral, 10 mg/kg): 0.25 h; bioavailability ([8]; mouse, plasma, oral, 10 mg/kg): 36.9%; half-life ([8]; mouse, plasma, oral, 10 mg/kg): 1.26 h; IC50 [6]: > 100 µM
	CC(C)c1cnc(-c2cc(Cl)ccc2F)cc1Nc1ccncc1C(=O)N1CCC(O)CC1 [compound 9, [4-[[2-(5-chloro-2-fluoro-phenyl)-5-isopropyl-4-pyridyl]amino]-3-pyridyl]-(4-hydroxy-1-piperidyl)methanone]				inhibition at 0.1 µM [7]: 6%; inhibition at 0.5 µM ([7]; 0.5 μM compound, read-out: Average p-SMAD2 inhibition @ 0.5 μM (% Inh)): 12.7%
> 1000	CC(C)c1cnc(-c2ccccc2)cc1Nc1ccncc1C(=O)NC[C@H](C)O [compound 28, N-(2-hydroxypropyl)-4-[(5-isopropyl-2-phenyl-4-pyridyl)amino]pyridine-3-carboxamide]	> 100	> 1000	> 1000	
> 10	C[C@H](O)CNC(=O)c1cnccc1Nc1cc(-c2cc(Cl)ccc2F)ncc1C1CC1 [compound 31, 4-{[2-(5-chloro-2-fluorophenyl)-5-cyclopropylpyridin-4-yl]amino}-N-[(2S)-2-hydroxypropyl]pyridine-3-carboxamide]	> 10	> 10	> 10	

Compound	IC50 [1, 9] [µM]	IC50 [4] [µM]	IC50 [5] [µM]	IC50 ([6]; 10 μM ATP) [µM]	other results
C=C(C)c1cnc(-c2cc(Cl)ccc2F)cc1Nc1ccncc1C(=O)N[C@@H](CC)CO (single isomer, unassigned) [24a]	> 100	> 100	> 100	> 100	
